In patent US20250339454A1, “COMPOSITIONS AND METHODS FOR THE PREVENTION OF LOSS OF ORGAN FUNCTION ASSOCIATED WITH CHRONIC ORGAN DISEASE” (Revelation Biosciences, Inc., priority 2023, published 2025):
Entries after “also recorded” stand apart in the source; their conditions may differ. Like-named read-outs stand apart in the source and are kept apart here.

Tested on: rat UUO model of acute kidney injury and chronic kidney disease
Assay type: in vivo
Source text: Composite data represents the average of 3 anatomically distinct depths (10 images/depth/rat/group=˜60-65% of renal cortical area).

[1] = rat serum, Day 7 post UUO, all groups, dose dependent, relative to the positive control group

Question: How did the “UUO-induced increases in renal cortical CVF” value (reference compound, dose not given) turn out when `Cc1cccc(-c2[nH]c(C(C)(C)C)nc2-c2ccc3nccnc3c2)n1` [SB-525334, reference compound] was run?
Answer: attenuated

Question: Which results are given for “phosphorylated hexaacyl disaccharide [REVTx-300]”?
Answer: IL-6 (marker of inflammation) (UUO model): no increase; fibrosis (collagen volume fraction, total collagen deposition via PicoSirius Red) (daily administration, dose dependent, relative to the positive control group): significant reduction; also recorded: Dose-dependent reduction; UUO-induced increases in renal cortical CVF (dosed at 0.3 mg/kg): attenuated; UUO-induced increases in renal cortical CVF (dosed at 0.9 mg/kg): attenuated; IL-1β (marker of inflammation) (rat serum, Day 7 post UUO): relatively minor increase; IL-18 (marker of inflammation) (rat serum, Day 7 post UUO): relatively minor increase; circulating anti-inflammatory interleukin-10 (IL-10) [1]: significantly increased; circulating hepcidin [1]: significantly increased; circulating neutrophil gelatinase-associated lipocalin (NGAL) [1]: significantly increased; circulating transforming growth factor-β (TGF-β) (rat serum, Day 7 post UUO, daily administration, dose dependent, relative to the positive control group): significant reduction
